# Activity calls are given as the source filed them. The rule behind the calls is not given here.
# Assays:
# Type in all cases: functional, organism-based
# [1] = test system: Aspergillus fumigatus; assay: Antimicrobial activity against Aspergillus fumigatus […] by standard disk assay
# [2] = test system: Pseudomonas aeruginosa; assay: Antimicrobial activity against Pseudomonas aeruginosa ATCC 27853 by standard disk assay
# [3] = test system: Mycobacterium intracellulare; assay: Antimicrobial activity against Mycobacterium intracellular […] by alamar blue assay
# [4] = test system: Staphylococcus aureus; assay: Antimicrobial activity against methicillin-resistant Staphylococcus aureus ATCC 43300 by standard disk assay
# [5] = test system: Escherichia coli; assay: Antimicrobial activity against Escherichia coli ATCC 35218 by standard disk assay
# [6] = test system: Candida albicans; assay: Antimicrobial activity against Candida albicans ATCC 90028 by standard disk assay
# [7] = test system: Cryptococcus neoformans; assay: Antimicrobial activity against Cryptococcus neoformans ATCC 90113 by standard disk assay
Structure (SMILES),Activity [1],Activity [2],Activity [3],Activity [4],Activity [5],IC50 [6] [µM],IC50 [7] [µM]
Cc1c(O)c(CC[C@H](C)C(=O)O)c(O)c2c1COC2=O,inactive,inactive,inactive,inactive,inactive,–,–
Cc1c(O)cc(O)c2c1COC2=O,inactive,inactive,inactive,inactive,inactive,–,–
COc1c(C)c2c(c(O)c1CC[C@H](C)C(=O)O)C(=O)OC2,inactive,inactive,inactive,–,inactive,–,–
COc1c(C)c2c(c(O)c1C/C=C(\C)CCC(=O)O)C(=O)OC2 [MYCOPHENOLIC ACID],inactive,inactive,inactive,inactive,inactive,8,15
COc1c(C)c2c(c(O)c1C/C=C(\C)[C@@H](O)CC(=O)O)C(=O)OC2,inactive,inactive,inactive,inactive,inactive,–,–
COC(=O)C[C@H](O)/C(C)=C/Cc1c(OC)c(C)c2c(c1OC)C(=O)OC2,inactive,inactive,inactive,inactive,inactive,–,–
